These results are taken from patent publication US10227663B2, “Non-replicative transduction particles and transduction particle-based reporter systems” (priority 2013, dated 2019).

In brackets after ≈: the same amount, converted by molar mass. Read-outs that look alike come from different tables or passages of the source.

Usually MIC stands for the lowest concentration that inhibits growth of the organism.

Assay [1] has as its system cefoxitin resistant S. aureus (MRSA strains). Briefly: MIC determination via plating on TSA plates containing cefoxitin. The following applies: Staphylococcus aureus. It is filed as cell-based. As for the experimental part:
(§1) Overnight Culture: For each MRSA strain ([…] and S7) and a MSSA negative control strain (MSSA121), 2 mL of TSB were inoculated with a colony of the strain previously grown on TSA plates. Overnight MRSA cultures included 5 ug/mL cefoxitin. All samples were incubated overnight at 37° C. in a shaking incubator.
(§2) Day Culture: 20 uL of each of the overnight cultures were transferred into a new culture tube containing 2 mL of Growth Media Reagent. The inoculums were then incubated at 37 C with shaking for approximately 1 hr 45 min, until the OD(600 nm) reached 0.1.
a) Each of the day cultures was streaked onto TSA plates containing cefoxitin at 4, 8, 16, 32, 64, and 128 ug/mL.
b) Plates were incubated for 18 hours at 37 C to determine growth.

The test system is the same in assay [2]. In words: NRTP-based cefoxitin susceptibility assay (luminescence). It is filed as cell-based, Staphylococcus aureus. The protocol:
as §1, §2
a) Wells of a white 96 well assay plate were filled with 100 uL of 2× Transduction Particle Reagent.
b) For each of the day cultures, five wells were then filled with 100 uL of day culture.
c) For each of the day cultures, cefoxitin was added to one well each such that the cefoxitin concentration in the well was at 4, 8, 16, 32, 64, and 128 ug/mL. […]
At the end of 4 hours, the plate was remove from incubator and immediately measured for luminescence on a SpectraMax L that injected 50 μl of the Substrate Reagent and measured luminescence for a period of 1 minute.
The maximum luminescence value after Substrate Reagent addition from each sample was plotted. MSSA sample RLU values were used to determine a Cutoff calculated using the following formula: (Mean MSSA RLU+3*SD MSSA RLU).

Take `CO[C@@]1(NC(=O)Cc2cccs2)C(=O)N2C(C(=O)O)=C(COC(N)=O)CS[C@@H]21` [cefoxitin]: the MIC in assay [1] (MRSA / NRS 25, 18 h) was found to be 128 µg/mL (≈ 299 µM); in assay [1] (MRSA S7, TSA plates, 18 hours at 37 C, read-out: MIC) it was 64 µg/mL (≈ 150 µM). Besides, the “Cefoxitin concentration up to which luminescence was above the MSSA RLU cutoff” value in assay [2] (MRSA NRS25, 4 hours at 37° C.) is “up to 64 ug/mL”; in assay [2] (MRSA S7, 4 hours at 37° C.) it was “up to 32 ug/mL”.
